Reference: patent US20250000843A1, “LIGNAN-INSPIRED COMPOUNDS, METHODS OF MAKING, AND USING THEREOF” (IOWAIBO, INC., priority 2023, published 2025)

System: MCF7 (human breast cancer cell line)
Assay: MTT toxicity assay in MCF7 breast cancer cells
Format: cell-based
Conditions: for breast cancer cell death as compared to enterolactone: MCF7, at higher concentrations, 24 hours and 72 hours post-treatment
Protocol: Toxicity of the dibenzyl butyl lactone derivative (3-[(3,4-dimethoxyphenyl)cyclopentyl], 4-[(3-hydroxyphenol)methyl]oxolan-2-one) in breast cancer cells was evaluated using MTT assay. The MTT toxicity test is a colorimetric assay to measure cells' metabolic activity by serving as a substrate of cellular enzymes that reduce the tetrazolium orange dye, MTT (3-(4,5-Dimethylthiazol-2-yl)-2,5-diphenyltetrazolium bromide) to its insoluble, formazan, giving a purple color. The rate of conversion is directly proportional to cells' mitochondrial metabolic activity via NAD (P) H-dependent cellular oxidoreductase enzymes and serves as a surrogate marker of cell viability.
Cultures of MCF7 (human breast cancer cell line) working stock (5 passages) were established under standard culture conditions in Eagle's minimum essential medium (EMEM). EMEM was supplemented with 10% fetal bovine serum (FBS), 2 mM Glutamine and Pen/Strep, and Penicillin 0.01 mg/ml.
Cells previously expanded were seeded in 96 well plates at 1.9×10^5 and 9.6×10^4 cells/plate for 24- and 72-hours treatment respectively. This concentration is known to show the best window for the MTT assay, with better sensitivity and low variability.
5 mg of powdered enterolactone, dibenzyl butyl lactone derivative enantiomer A, and dibenzyl butyl lactone derivative enantiomer B were dissolved in 500 μl of DMSO at room temperature. Eight-point curves, ⅓ dilutions (highest concentration 125 μM), were prepared.
Twenty-four hours following the seeding process, the cells were washed once with phosphate buffered saline (PBS) and treated with the respective compounds in cell culture media. Each condition was tested in triplicates. For positive and negative controls, 8 mM methyl methane sulfonate (MMS) and DMSO 100% were used respectively.
Following compound addition, the plates were incubated for 24 and 72 hours. After the treatment period, cells were washed twice with PBS and media was replaced with MTT reagent at 0.5 mg/ml in Dulbecco's modified Eagle medium (DMEM) without phenol red. The plates were gently shaken and incubated for 4 hours. After the incubation the medium was removed and replaced by DMSO. The plates were gently shaken to solubilize the formazan crystals. Absorbance was measured using an Envision multiplate reader at a wavelength of 570 nm.
Eight serial dilutions were prepared (125.00, 41.67, 13.89, 4.63, 1.54, 0.51, 0.17 and 0.06 µM to evaluate the compounds (in triplicate). MTT results showing cell death values above 20% are considered as having a significant toxic effect.
MTT assay results are shown in Tables 2-7 and expressed as the percentage of cell death after treatment.

O=C1OCC(Cc2ccc3c(c2)OCO3)/C1=C\c1cccc(O)c1 (single isomer, unassigned) [Enantiomer B, 3-[(3,4-dimethoxyphenyl)cyclopentyl], 4-[(3-hydroxyphenol)methyl]oxolan-2-one]
Cell death #1 (%) (MCF7, 24 hours, 0.06 μM): −90.03%
Cell death #2 (%) (MCF7, 24 hours, 0.06 μM): −85.75%
Cell death #3 (%) (MCF7, 24 hours, 0.06 μM): −79.34%
Cell death (%) MEAN (MCF7, 24 hours, 0.06 μM): −85.04%
Cell death #1 (%) (MCF7, 24 hours, 0.17 μM): −146.30%
Cell death #2 (%) (MCF7, 24 hours, 0.17 μM): −115.67%
Cell death #3 (%) (MCF7, 24 hours, 0.17 μM): −91.45%
Cell death (%) MEAN (MCF7, 24 hours, 0.17 μM): −117.81%
Cell death #1 (%) (MCF7, 24 hours, 0.51 μM): −124.22%
Cell death #2 (%) (MCF7, 24 hours, 0.51 μM): −120.66%
Cell death #3 (%) (MCF7, 24 hours, 0.51 μM): −95.01%
Cell death (%) MEAN (MCF7, 24 hours, 0.51 μM): −113.30%
Cell death #1 (%) (MCF7, 24 hours, 1.54 μM): −115.67%
Cell death #2 (%) (MCF7, 24 hours, 1.54 μM): −156.99%
Cell death #3 (%) (MCF7, 24 hours, 1.54 μM): −114.96%
Cell death (%) MEAN (MCF7, 24 hours, 1.54 μM): −129.21%
Cell death #1 (%) (MCF7, 24 hours, 4.63 μM): −134.19%
Cell death #2 (%) (MCF7, 24 hours, 4.63 μM): −163.40%
Cell death #3 (%) (MCF7, 24 hours, 4.63 μM): −138.47%
Cell death (%) MEAN (MCF7, 24 hours, 4.63 μM): −145.35%
Cell death #1 (%) (MCF7, 24 hours, 13.89 μM): −132.06%
Cell death #2 (%) (MCF7, 24 hours, 13.89 μM): −174.09%
Cell death #3 (%) (MCF7, 24 hours, 13.89 μM): −134.91%
Cell death (%) MEAN (MCF7, 24 hours, 13.89 μM): −147.02%
Cell death #1 (%) (MCF7, 24 hours, 41.67 μM): −211.84%
Cell death #2 (%) (MCF7, 24 hours, 41.67 μM): −192.61%
Cell death #3 (%) (MCF7, 24 hours, 41.67 μM): −204.01%
Cell death (%) MEAN (MCF7, 24 hours, 41.67 μM): −202.82%
Cell death #1 (%) (MCF7, 24 hours, 125.00 μM): 63.85%
Cell death #2 (%) (MCF7, 24 hours, 125.00 μM): 47.46%
Cell death #3 (%) (MCF7, 24 hours, 125.00 μM): 63.13%
Cell death (%) MEAN (MCF7, 24 hours, 125.00 μM): 58.15%
Cell death #1 (%) (MCF7, 72 hours, 0.06 μM): −31.84%
Cell death #2 (%) (MCF7, 72 hours, 0.06 μM): −27.21%
Cell death #3 (%) (MCF7, 72 hours, 0.06 μM): −56.05%
Cell death (%) MEAN (MCF7, 72 hours, 0.06 μM): −38.37%
Cell death #1 (%) (MCF7, 72 hours, 0.17 μM): −74.60%
Cell death #2 (%) (MCF7, 72 hours, 0.17 μM): −57.08%
Cell death #3 (%) (MCF7, 72 hours, 0.17 μM): −52.45%
Cell death (%) MEAN (MCF7, 72 hours, 0.17 μM): −61.38%
Cell death #1 (%) (MCF7, 72 hours, 0.51 μM): −28.49%
Cell death #2 (%) (MCF7, 72 hours, 0.51 μM): −52.45%
Cell death #3 (%) (MCF7, 72 hours, 0.51 μM): −56.31%
Cell death (%) MEAN (MCF7, 72 hours, 0.51 μM): −45.75%
Cell death #1 (%) (MCF7, 72 hours, 1.54 μM): −22.57%
Cell death #2 (%) (MCF7, 72 hours, 1.54 μM): −37.77%
Cell death #3 (%) (MCF7, 72 hours, 1.54 μM): −19.48%
Cell death (%) MEAN (MCF7, 72 hours, 1.54 μM): −26.60%
Cell death #1 (%) (MCF7, 72 hours, 4.63 μM): −32.87%
Cell death #2 (%) (MCF7, 72 hours, 4.63 μM): −34.42%
Cell death #3 (%) (MCF7, 72 hours, 4.63 μM): −30.04%
Cell death (%) MEAN (MCF7, 72 hours, 4.63 μM): −32.44%
Cell death #1 (%) (MCF7, 72 hours, 13.89 μM): −23.34%
Cell death #2 (%) (MCF7, 72 hours, 13.89 μM): −30.55%
Cell death #3 (%) (MCF7, 72 hours, 13.89 μM): −9.69%
Cell death (%) MEAN (MCF7, 72 hours, 13.89 μM): −21.20%
Cell death #1 (%) (MCF7, 72 hours, 41.67 μM): −18.96%
Cell death #2 (%) (MCF7, 72 hours, 41.67 μM): −6.08%
Cell death #3 (%) (MCF7, 72 hours, 41.67 μM): 17.10%
Cell death (%) MEAN (MCF7, 72 hours, 41.67 μM): −2.65%
Cell death #1 (%) (MCF7, 72 hours, 125.00 μM): 99.00%
Cell death #2 (%) (MCF7, 72 hours, 125.00 μM): 99.52%
Cell death #3 (%) (MCF7, 72 hours, 125.00 μM): 99.00%
Cell death (%) MEAN (MCF7, 72 hours, 125.00 μM): 99.17%
breast cancer cell death as compared to enterolactone: increased breast cancer cell death as compared to enterolactone

O=C1OCC(Cc2ccc3c(c2)OCO3)/C1=C\c1cccc(O)c1 (single isomer, unassigned) [Enantiomer A, 3-[(3,4-dimethoxyphenyl)cyclopentyl], 4-[(3-hydroxyphenol)methyl]oxolan-2-one]
Cell death #1 (%) (MCF7, 24 hours, 0.06 μM): −25.82%
Cell death #2 (%) (MCF7, 24 hours, 0.06 μM): −37.36%
Cell death #3 (%) (MCF7, 24 hours, 0.06 μM): −35.43%
Cell death (%) MEAN (MCF7, 24 hours, 0.06 μM): −32.87%
Cell death #1 (%) (MCF7, 24 hours, 0.17 μM): −27.36%
Cell death #2 (%) (MCF7, 24 hours, 0.17 μM): −44.28%
Cell death #3 (%) (MCF7, 24 hours, 0.17 μM): −55.05%
Cell death (%) MEAN (MCF7, 24 hours, 0.17 μM): −42.23%
Cell death #1 (%) (MCF7, 24 hours, 0.51 μM): −57.74%
Cell death #2 (%) (MCF7, 24 hours, 0.51 μM): −18.51%
Cell death #3 (%) (MCF7, 24 hours, 0.51 μM): −45.82%
Cell death (%) MEAN (MCF7, 24 hours, 0.51 μM): −40.69%
Cell death #1 (%) (MCF7, 24 hours, 1.54 μM): −48.89%
Cell death #2 (%) (MCF7, 24 hours, 1.54 μM): −51.59%
Cell death #3 (%) (MCF7, 24 hours, 1.54 μM): −43.51%
Cell death (%) MEAN (MCF7, 24 hours, 1.54 μM): −48.00%
Cell death #1 (%) (MCF7, 24 hours, 4.63 μM): −58.89%
Cell death #2 (%) (MCF7, 24 hours, 4.63 μM): −57.74%
Cell death #3 (%) (MCF7, 24 hours, 4.63 μM): −34.66%
Cell death (%) MEAN (MCF7, 24 hours, 4.63 μM): −50.43%
Cell death #1 (%) (MCF7, 24 hours, 13.89 μM): −61.20%
Cell death #2 (%) (MCF7, 24 hours, 13.89 μM): −35.05%
Cell death #3 (%) (MCF7, 24 hours, 13.89 μM): −25.05%
Cell death (%) MEAN (MCF7, 24 hours, 13.89 μM): −40.43%
Cell death #1 (%) (MCF7, 24 hours, 41.67 μM): −83.51%
Cell death #2 (%) (MCF7, 24 hours, 41.67 μM): −78.89%
Cell death #3 (%) (MCF7, 24 hours, 41.67 μM): −45.05%
Cell death (%) MEAN (MCF7, 24 hours, 41.67 μM): −69.15%
Cell death #1 (%) (MCF7, 24 hours, 125.00 μM): 98.41%
Cell death #2 (%) (MCF7, 24 hours, 125.00 μM): 95.72%
Cell death #3 (%) (MCF7, 24 hours, 125.00 μM): 100.72%
Cell death (%) MEAN (MCF7, 24 hours, 125.00 μM): 98.29%
Cell death #1 (%) (MCF7, 72 hours, 0.06 μM): −51.17%
Cell death #2 (%) (MCF7, 72 hours, 0.06 μM): −29.40%
Cell death #3 (%) (MCF7, 72 hours, 0.06 μM): −11.64%
Cell death (%) MEAN (MCF7, 72 hours, 0.06 μM): −30.74%
Cell death #1 (%) (MCF7, 72 hours, 0.17 μM): −56.87%
Cell death #2 (%) (MCF7, 72 hours, 0.17 μM): −58.21%
Cell death #3 (%) (MCF7, 72 hours, 0.17 μM): −50.17%
Cell death (%) MEAN (MCF7, 72 hours, 0.17 μM): −55.08%
Cell death #1 (%) (MCF7, 72 hours, 0.51 μM): −79.98%
Cell death #2 (%) (MCF7, 72 hours, 0.51 μM): −51.84%
Cell death #3 (%) (MCF7, 72 hours, 0.51 μM): −72.61%
Cell death (%) MEAN (MCF7, 72 hours, 0.51 μM): −68.15%
Cell death #1 (%) (MCF7, 72 hours, 1.54 μM): −57.87%
Cell death #2 (%) (MCF7, 72 hours, 1.54 μM): −73.62%
Cell death #3 (%) (MCF7, 72 hours, 1.54 μM): −58.88%
Cell death (%) MEAN (MCF7, 72 hours, 1.54 μM): −63.46%
Cell death #1 (%) (MCF7, 72 hours, 4.63 μM): −90.37%
Cell death #2 (%) (MCF7, 72 hours, 4.63 μM): −113.15%
Cell death #3 (%) (MCF7, 72 hours, 4.63 μM): −79.31%
Cell death (%) MEAN (MCF7, 72 hours, 4.63 μM): −94.28%
Cell death #1 (%) (MCF7, 72 hours, 13.89 μM): −43.13%
Cell death #2 (%) (MCF7, 72 hours, 13.89 μM): −52.85%
Cell death #3 (%) (MCF7, 72 hours, 13.89 μM): −46.15%
Cell death (%) MEAN (MCF7, 72 hours, 13.89 μM): −47.38%
Cell death #1 (%) (MCF7, 72 hours, 41.67 μM): 15.49%
Cell death #2 (%) (MCF7, 72 hours, 41.67 μM): 4.10%
Cell death #3 (%) (MCF7, 72 hours, 41.67 μM): 2.76%
Cell death (%) MEAN (MCF7, 72 hours, 41.67 μM): 7.45%
Cell death #1 (%) (MCF7, 72 hours, 125.00 μM): 99.92%
Cell death #2 (%) (MCF7, 72 hours, 125.00 μM): 99.92%
Cell death #3 (%) (MCF7, 72 hours, 125.00 μM): 99.58%
Cell death (%) MEAN (MCF7, 72 hours, 125.00 μM): 99.80%
breast cancer cell death as compared to enterolactone: increased breast cancer cell death as compared to enterolactone
